Data taken from patent US7812008B2, “9-substituted tetracyclines” (Wyeth LLC, priority 2005, dated 2010).
≈ marks a conversion by molar mass, not a printed value. Like-named read-outs stand apart in the source and are kept apart here.

What was measured:
[1] = system: S. aureus GC1131 (Clinical); test: MIC broth microdilution, S. aureus GC1131 (Clinical); format: cell-based; settings: MHBII, 18-22 hours at 35° C.
Experimental: (§1) Methods for in Vitro Antibacterial Evaluation
(§2) The minimum inhibitory concentration (MIC)
(§3) Antimicrobial susceptibility testing. The in vitro activities of representative examples of antibiotics of the invention are determined by the broth microdilution method as recommended by the National Committee for Clinical Laboratory Standards (NCCLS) (1). Mueller-Hinton II broth (MHBII)(BBL Cockeysville, Md.) is the medium employed in the testing procedures. Microtiter plates containing serial dilutions of each antimicrobial agent are inoculated with each organism to yield the appropriate density (10^5 CFU/ml) in a 100 μl final volume. The plates are incubated for 18-22 hours at 35° C. in ambient air. […] NCCLS. 2000. Methods for Dilution Antimicrobial Susceptibility Tests for Bacteria That Grow Aerobically; Approved Standards: M7-A5, vol. 20. National Committe for Clinical Laboratory Standards, Wayne, Pa.

[2] = system: S. aureus GC6467 (tet(M) + (K)); test: MIC broth microdilution, S. aureus GC6467 (tet(M) + (K)); format: cell-based; settings: MHBII, 18-22 hours at 35° C.
Experimental: as §1, §2, §3

[3] = system: S. aureus GC4536 (Smith MP -In Vivo); test: MIC broth microdilution, S. aureus GC4536 (Smith MP -In Vivo); format: cell-based; settings: MHBII, 18-22 hours at 35° C.
Experimental: as §1, §2, §3

[4] = system: S. pyogenes* GC4563 (Clinical); test: MIC broth microdilution, S. pyogenes GC4563 (Clinical); format: cell-based; settings: 18-22 hours at 35° C.
Experimental: as §1, §2, §3

[5] = system: E. coli GC4560 (IMP mutant); test: MIC broth microdilution, E. coli GC4560 (IMP mutant); format: cell-based; settings: MHBII, 18-22 hours at 35° C.
Experimental: as §1, §2, §3

[6] = system: E. faecalis GC2267 (tet(L) + (M) + (S)); test: MIC broth microdilution, E. faecalis GC2267 (tet(L) + (M) + (S)); format: cell-based; settings: MHBII, 18-22 hours at 35° C.
Experimental: as §1, §2, §3

[7] = system: S. pneumoniae* GC1894 (Clinical); test: MIC broth microdilution, S. pneumoniae GC1894 (Clinical); format: cell-based; settings: 18-22 hours at 35° C.
Experimental: as §1, §2, §3

[8] = system: M. catarrhalis* GC6907 (Clinical); test: MIC broth microdilution, M. catarrhalis GC6907 (Clinical); format: cell-based; settings: 18-22 hours at 35° C.
Experimental: as §1, §2, §3

[9] = system: E. coli GC4559 (parent GC4560); test: MIC broth microdilution, E. coli GC4559 (parent GC4560); format: cell-based; settings: MHBII, 18-22 hours at 35° C.
Experimental: as §1, §2, §3

[10] = system: E. faecalis GC2242 (Van-resistant); test: MIC broth microdilution, E. faecalis GC2242 (Van-resistant); format: cell-based; settings: MHBII, 18-22 hours at 35° C.
Experimental: as §1, §2, §3

[11] = system: S. aureus GC6466 (tet(M)); test: MIC broth microdilution, S. aureus GC6466 (tet(M)); format: cell-based; settings: MHBII, 18-22 hours at 35° C.
Experimental: as §1, §2, §3

[12] = system: S. pneumoniae* GC4465 (Clinical); test: MIC broth microdilution, S. pneumoniae GC4465 (Clinical); format: cell-based; settings: 18-22 hours at 35° C.
Experimental: as §1, §2, §3

[13] = system: H. influenzae<> GC6896 (ATCC Control); test: MIC broth microdilution, H. influenzae GC6896 (ATCC Control); format: cell-based; settings: 18-22 hours at 35° C.
Experimental: as §1, §2, §3

[14] = system: C. albicans GC3066 ATCC (Control); test: MIC broth microdilution, C. albicans GC3066 ATCC (Control); format: cell-based; settings: 18-22 hours at 35° C.
Experimental: as §1, §2, §3

E. coli GC2270 (tet(M)) = test: MIC broth microdilution, E. coli GC2270 (tet(M)); format: cell-based; settings: MHBII, 18-22 hours at 35° C.
Experimental: as §1, §2, §3

[15] = system: S. aureus GC1079 (tet(K)); test: MIC broth microdilution, S. aureus GC1079 (tet(K)); format: cell-based; settings: MHBII, 18-22 hours at 35° C.
Experimental: as §1, §2, §3

[16] = system: Staphylococcal aureus Smith M P; test: In vivo antibacterial evaluation, acute lethal infection in mice; settings: Mus musculus; single oral dose 30 minutes after intraperitoneal challenge; female CD-1 mice; 7 day survival ratios, 3 tests pooled; read-out: SOD* ED50
Experimental: In Vivo Antibacterial Evaluation: The therapeutic effects of representative examples of the invention are determined against acute lethal infection with Staphylococcal aureus Smith M P, Female mice, strain CD-1 (Charles River Laboratoties), ca. 20 grams, are challenged by an intraperitoneal injection of sufficient bacteria (suspended in broth or hog mucin) to kill non-treated controls within 24-28 hours. Antibacterial agents, contained in 0.5 ml of 0.2% aqueous agar, are administered subcutaneously or orally 30 minutes after injection. When an oral dosing schedule is used, animal are deprived of food for 5 hours before and 2 hours after injection. Five mice are treated at each dose level. The 7 day survival ratios from 3 separate tests are pooled for calculation of median effective dose (ED50).

[17] = system: E. coli GC2203 (ATCC Control); test: MIC broth microdilution, E. coli GC2203 (ATCC Control); format: cell-based; settings: MHBII, 18-22 hours at 35° C.
Experimental: as §1, §2, §3

[18] = system: Staphylococcal aureus Smith M P; test: In vivo antibacterial evaluation, acute lethal infection in mice; settings: Mus musculus, iv, 168 h; single intraveneous dose; female CD-1 mice; 7 day survival ratios, 3 tests pooled; read-out: SIV* ED50
E. coli GC1073 (tet(B)) = test: MIC broth microdilution, E. coli GC1073 (tet(B)); format: cell-based; settings: MHBII, 18-22 hours at 35° C.
Experimental: as §1, §2, §3

[19] = system: S. aureus GC2216 (ATCC Control); test: MIC broth microdilution, S. aureus GC2216 (ATCC Control); format: cell-based; settings: MHBII, 18-22 hours at 35° C.
Experimental: as §1, §2, §3

[20] = system: Staphylococcal aureus Smith M P; test: MIC reported in Table 2 beside the in vivo ED50; format: cell-based; settings: Staphylococcus aureus, infecting strain S. aureus Smith MP
Experimental: Antimicrobial susceptibility testing. The in vitro activities of representative examples of antibiotics of the invention are determined by the broth microdilution method as recommended by the National Committee for Clinical Laboratory Standards (NCCLS) (1). Mueller-Hinton II broth (MHBII)(BBL Cockeysville, Md.) is the medium employed in the testing procedures. Microtiter plates containing serial dilutions of each antimicrobial agent are inoculated with each organism to yield the appropriate density (10^5 CFU/ml) in a 100 μl final volume. The plates are incubated for 18-22 hours at 35° C. in ambient air. […] NCCLS. 2000. Methods for Dilution Antimicrobial Susceptibility Tests for Bacteria That Grow Aerobically; Approved Standards: M7-A5, vol. 20. National Committe for Clinical Laboratory Standards, Wayne, Pa. In Vivo Antibacterial Evaluation: The therapeutic effects of representative examples of the invention are determined against acute lethal infection with Staphylococcal aureus Smith M P, Female mice, strain CD-1 (Charles River Laboratoties), ca. 20 grams, are challenged by an intraperitoneal injection of sufficient bacteria (suspended in broth or hog mucin) to kill non-treated controls within 24-28 hours. Antibacterial agents, contained in 0.5 ml of 0.2% aqueous agar, are administered subcutaneously or orally 30 minutes after injection. When an oral dosing schedule is used, animal are deprived of food for 5 hours before and 2 hours after injection. Five mice are treated at each dose level. The 7 day survival ratios from 3 separate tests are pooled for calculation of median effective dose (ED50).

[21] = system: E. faecalis GC4555 (ATCC Control); test: MIC broth microdilution, E. faecalis GC4555 (ATCC Control); format: cell-based; settings: MHBII, 18-22 hours at 35° C.
Experimental: as §1, §2, §3

Row | Compound | minimum inhibitory concentration (MIC) [1] | minimum inhibitory concentration (MIC) [2] | minimum inhibitory concentration (MIC) [3] | minimum inhibitory concentration (MIC) [4] | minimum inhibitory concentration (MIC) [5] | minimum inhibitory concentration (MIC) [6] | minimum inhibitory concentration (MIC) [7] | minimum inhibitory concentration (MIC) [8] | minimum inhibitory concentration (MIC) [9] | minimum inhibitory concentration (MIC) [10] | minimum inhibitory concentration (MIC) [11] | minimum inhibitory concentration (MIC) [12] | minimum inhibitory concentration (MIC) [13] | minimum inhibitory concentration (MIC) [14] | minimum inhibitory concentration (MIC) (E. coli GC2270 (tet(M))) | minimum inhibitory concentration (MIC) [15] | ED50 [16] [mg/kg] | minimum inhibitory concentration (MIC) [17] | ED50 [18] [mg/kg] | minimum inhibitory concentration (MIC) (E. coli GC1073 (tet(B))) | also measured
1 | CN(C)c1cc(NC(=O)CN(O)C2CCCCC2)c(O)c2c1C[C@H]1C[C@H]3[C@H](N(C)C)C(O)=C(C(N)=O)C(=O)[C@@]3(O)C(O)=C1C2=O [Example 1, (4S,4aS,5aR,12aS)-9-[(N-cyclohexyl-N-hydroxyglycyl)amino]-4,7-bis(dimethylamino)-3,10,12,12a-tetrahydroxy-1,11-dioxo-1,4,4a,5,5a,6,11,12a-octahydrotetracene-2-carboxamide] | 4 | >64 | 4 | 0.12 | 0.25 | 16 | 0.25 | 0.50 | 8 | 2 | 8 | 0.25 | 2 | >64 | 8 | 16 | 7.75 | 2 | 1.56 | 16 | minimum inhibitory concentration (MIC) [19]: 4; MIC [20]: 1 µg/mL (≈ 1.59 µM); minimum inhibitory concentration (MIC) [21]: 1
2 | CC(C)N(O)CC(=O)Nc1cc(N(C)C)c2c(c1O)C(=O)C1=C(O)[C@]3(O)C(=O)C(C(N)=O)=C(O)[C@@H](N(C)C)[C@@H]3C[C@@H]1C2 [Example 2, (4S,4aS,5aR,12aS)-4,7-bis(dimethylamino)-3,10,12,12a-tetrahydroxy-9-[(N-hydroxy-N-isopropylglycyl)amino]-1,11-dioxo-1,4,4a,5,5a,6,11,12a-octahydrotetracene-2-carboxamide] | 4 | 16 | 4 | 0.25 | 0.25 | 4 | 0.25 | 1 | 8 | 2 | 4 | 0.25 | 2 | >64 | 4 | 8 | 18 | 2 | 0.25 to 0.5 | 16 | minimum inhibitory concentration (MIC) [19]: 2; MIC [20]: 1 µg/mL (≈ 1.7 µM); minimum inhibitory concentration (MIC) [21]: 1
3 | CN(C)c1cc(NC(=O)CN(O)C(C)(C)C)c(O)c2c1C[C@H]1C[C@H]3[C@H](N(C)C)C(O)=C(C(N)=O)C(=O)[C@@]3(O)C(O)=C1C2=O [Example 3, (4S,4aS,5aR,12aS)-9-{[N-(tert-butyl)-N-hydroxyglycyl]amino}-4,7-bis(dimethylamino)-3,10,12,12a-tetrahydroxy-1,11-dioxo-1,4,4a,5,5a,6,11,12a-octahydrotetracene-2-carboxamide] | 4 | 16 | 4 | 0.50 | 1 | 8 | 1 | 2 | >64 | 8 | 4 | 1 | 8 | >64 | >64 | 8 | > 32 | 32 | 2 to 4 | >64 | minimum inhibitory concentration (MIC) [19]: 4; MIC [20]: 1 µg/mL (≈ 1.66 µM); minimum inhibitory concentration (MIC) [21]: 4
